Measurements from PubChem BioAssay (NCI).
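Five compound concentrations were applied to cells in 96-well plates for 48 hours; endpoints were derived by simple linear interpolation of the resulting dose-response curve. TGI marks complete inhibition of growth.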

Columns and labels:
Test in all cases: NCI tumour cell line growth inhibition, 48 h
MDA-MB-435 = test system: MDA-MB-435
UO-31 renal = test system: UO-31 renal
HCC-2998 colon = test system: HCC-2998 colon
BT-549 breast = test system: BT-549 breast
COLO 205 colon = test system: COLO 205 colon
NCI-H460 lung = test system: NCI-H460 lung
M14 melanoma = test system: M14 melanoma
HT29 colon = test system: HT29 colon
SF-268 CNS = test system: SF-268 CNS
U251 CNS = test system: U251 CNS
HCT-116 colon = test system: HCT-116 colon
HS 578T breast = test system: HS 578T breast
MOLT-4 leukemia = test system: MOLT-4 leukemia
NCI-H522 lung = test system: NCI-H522 lung
UACC-62 melanoma = test system: UACC-62 melanoma
SR leukemia = test system: SR leukemia
CCRF-CEM leukemia = test system: CCRF-CEM leukemia
MDA-N = test system: MDA-N
DU-145 prostate = test system: DU-145 prostate
SF-539 CNS = test system: SF-539 CNS
SN12C renal = test system: SN12C renal
EKVX NSCLC = test system: EKVX NSCLC
NCI-H23 lung = test system: NCI-H23 lung
LOX IMVI melanoma = test system: LOX IMVI melanoma
SNB-19 CNS = test system: SNB-19 CNS
OVCAR-3 ovarian = test system: OVCAR-3 ovarian
RPMI-8226 leukemia = test system: RPMI-8226 leukemia
SK-MEL-5 melanoma = test system: SK-MEL-5 melanoma
T-47D breast = test system: T-47D breast
KM12 colon = test system: KM12 colon
K-562 leukemia = test system: K-562 leukemia
SW-620 colon = test system: SW-620 colon
CAKI-1 renal = test system: CAKI-1 renal
NCI-H226 lung = test system: NCI-H226 lung
786-0 renal = test system: 786-0 renal
IGROV1 ovarian = test system: IGROV1 ovarian
NCI/ADR-RES ovarian = test system: NCI/ADR-RES ovarian
OVCAR-4 ovarian = test system: OVCAR-4 ovarian
TK-10 renal = test system: TK-10 renal
SK-MEL-28 melanoma = test system: SK-MEL-28 melanoma
HCT-15 colon = test system: HCT-15 colon
HOP-62 NSCLC = test system: HOP-62 NSCLC
ACHN renal = test system: ACHN renal
HL-60(TB) leukemia = test system: HL-60(TB) leukemia
MDA-MB-231 breast = test system: MDA-MB-231 breast
OVCAR-8 ovarian = test system: OVCAR-8 ovarian
A549 NSCLC = test system: A549 NSCLC
MALME-3M melanoma = test system: MALME-3M melanoma
UACC-257 melanoma = test system: UACC-257 melanoma
SF-295 CNS = test system: SF-295 CNS
MCF7 breast = test system: MCF7 breast
RXF 393 renal = test system: RXF 393 renal
SK-MEL-2 melanoma = test system: SK-MEL-2 melanoma
PC-3 prostate = test system: PC-3 prostate
OVCAR-5 ovarian = test system: OVCAR-5 ovarian
SK-OV-3 ovarian = test system: SK-OV-3 ovarian
A498 renal = test system: A498 renal
SNB-75 CNS = test system: SNB-75 CNS
HOP-92 NSCLC = test system: HOP-92 NSCLC

`COc1nc(=O)n(C2CC(F)C(CO)O2)cc1C` (stereo not drawn) was tested, and the TGI (MDA-MB-435) was > 100 µM, the TGI (UO-31 renal) was > 100 µM and the TGI (HCC-2998 colon) was > 100 µM. The TGI (BT-549 breast) was > 100 µM, the TGI (COLO 205 colon) was > 100 µM and the TGI (NCI-H460 lung) was > 100 µM. The TGI (M14 melanoma) was > 100 µM, the TGI (HT29 colon) was > 100 µM and the TGI (SF-268 CNS) was > 100 µM. For the same compound, the TGI (U251 CNS) was > 100 µM, the TGI (HCT-116 colon) was > 100 µM and the TGI (HS 578T breast) was > 100 µM. For the same compound, the TGI (MOLT-4 leukemia) was > 100 µM, the TGI (NCI-H522 lung) was > 100 µM and the TGI (UACC-62 melanoma) was > 100 µM. For the same compound, the TGI (SR leukemia) was > 100 µM, the TGI (CCRF-CEM leukemia) was > 100 µM and the TGI (MDA-N) was > 100 µM. For the same compound, the TGI (DU-145 prostate) was > 100 µM, the TGI (SF-539 CNS) was > 100 µM and the TGI (SN12C renal) was > 100 µM. The TGI (EKVX NSCLC) was > 100 µM, the TGI (NCI-H23 lung) was > 100 µM and the TGI (LOX IMVI melanoma) was > 100 µM. The TGI (SNB-19 CNS) was > 100 µM, the TGI (OVCAR-3 ovarian) was > 100 µM and the TGI (RPMI-8226 leukemia) was > 100 µM. The TGI (SK-MEL-5 melanoma) was > 100 µM, the TGI (T-47D breast) was > 100 µM and the TGI (KM12 colon) was > 100 µM. The TGI (K-562 leukemia) was > 100 µM, the TGI (SW-620 colon) was > 100 µM and the TGI (CAKI-1 renal) was > 100 µM. The TGI (NCI-H226 lung) was > 100 µM, the TGI (786-0 renal) was > 100 µM and the TGI (IGROV1 ovarian) was > 100 µM. The TGI (NCI/ADR-RES ovarian) was > 100 µM, the TGI (OVCAR-4 ovarian) was > 100 µM and the TGI (TK-10 renal) was > 100 µM. For the same compound, the TGI (SK-MEL-28 melanoma) was > 100 µM, the TGI (HCT-15 colon) was > 100 µM and the TGI (HOP-62 NSCLC) was > 100 µM. For the same compound, the TGI (ACHN renal) was > 100 µM, the TGI (HL-60(TB) leukemia) was > 100 µM and the TGI (MDA-MB-231 breast) was > 100 µM. The TGI (OVCAR-8 ovarian) was > 100 µM, the TGI (A549 NSCLC) was > 100 µM and the TGI (MALME-3M melanoma) was > 100 µM. The TGI (UACC-257 melanoma) was > 100 µM, the TGI (SF-295 CNS) was > 100 µM and the TGI (MCF7 breast) was > 100 µM.
`O=c1ccc2[n+]([O-])c3ccc(O)cc3oc-2c1` was tested, and the TGI (RXF 393 renal) was > 100 µM, the TGI (UO-31 renal) was 8 µM and the TGI (HCC-2998 colon) was > 100 µM. It also gave a TGI (BT-549 breast) of 25.9 µM, a TGI (COLO 205 colon) of 30.1 µM and a TGI (NCI-H460 lung) of 38.7 µM. For the same compound, the TGI (SK-MEL-2 melanoma) was 31.5 µM, the TGI (M14 melanoma) was 25.4 µM and the TGI (HT29 colon) was 53.9 µM. The TGI (SF-268 CNS) was > 100 µM, the TGI (U251 CNS) was > 100 µM and the TGI (HCT-116 colon) was > 100 µM. The TGI (HS 578T breast) was > 54.1 µM, the TGI (MOLT-4 leukemia) was 57 µM and the TGI (PC-3 prostate) was > 100 µM. For the same compound, the TGI (OVCAR-5 ovarian) was 56.6 µM, the TGI (NCI-H522 lung) was 36.6 µM and the TGI (UACC-62 melanoma) was 7.35 µM. The TGI (SR leukemia) was > 64 µM, the TGI (CCRF-CEM leukemia) was > 73 µM and the TGI (MDA-N) was 3.37 µM. The TGI (DU-145 prostate) was 30.8 µM, the TGI (SF-539 CNS) was > 100 µM and the TGI (SN12C renal) was 36.7 µM. For the same compound, the TGI (EKVX NSCLC) was > 100 µM, the TGI (NCI-H23 lung) was 11.4 µM and the TGI (LOX IMVI melanoma) was 13.8 µM. For the same compound, the TGI (OVCAR-3 ovarian) was > 80.3 µM, the TGI (RPMI-8226 leukemia) was > 87 µM and the TGI (SK-MEL-5 melanoma) was 13.8 µM. The TGI (T-47D breast) was > 100 µM, the TGI (KM12 colon) was > 100 µM and the TGI (K-562 leukemia) was > 100 µM. For the same compound, the TGI (SK-OV-3 ovarian) was > 100 µM, the TGI (SW-620 colon) was 48 µM and the TGI (CAKI-1 renal) was > 100 µM. The TGI (NCI-H226 lung) was > 66.8 µM, the TGI (786-0 renal) was 27.2 µM and the TGI (A498 renal) was > 100 µM. The TGI (IGROV1 ovarian) was > 100 µM, the TGI (NCI/ADR-RES ovarian) was 67.5 µM and the TGI (OVCAR-4 ovarian) was 97 µM. For the same compound, the TGI (TK-10 renal) was > 85.2 µM, the TGI (SK-MEL-28 melanoma) was 22.6 µM and the TGI (HCT-15 colon) was > 47.9 µM. For the same compound, the TGI (HOP-62 NSCLC) was 67 µM, the TGI (SNB-75 CNS) was > 40.7 µM and the TGI (ACHN renal) was > 37.7 µM. For the same compound, the TGI (HL-60(TB) leukemia) was > 66.8 µM, the TGI (MDA-MB-231 breast) was > 92.3 µM and the TGI (OVCAR-8 ovarian) was > 91.6 µM. The TGI (A549 NSCLC) was 20.6 µM, the TGI (MALME-3M melanoma) was 18.3 µM and the TGI (HOP-92 NSCLC) was > 100 µM. It also gave a TGI (UACC-257 melanoma) of 26 µM, a TGI (SF-295 CNS) of 21.6 µM and a TGI (MCF7 breast) of 18.8 µM.
With `O=C(O)CCC[C@]1(O)O[C@@]2(CCCC2=O)[C@]2(O)CCC[C@@]21O` the TGI (RXF 393 renal) was > 100 µM, the TGI (UO-31 renal) was > 100 µM and the TGI (BT-549 breast) was > 100 µM. The TGI (COLO 205 colon) was > 100 µM, the TGI (NCI-H460 lung) was > 100 µM and the TGI (SK-MEL-2 melanoma) was > 100 µM. For the same compound, the TGI (M14 melanoma) was > 100 µM, the TGI (HT29 colon) was > 100 µM and the TGI (SF-268 CNS) was > 100 µM. For the same compound, the TGI (U251 CNS) was > 100 µM, the TGI (HCT-116 colon) was > 100 µM and the TGI (HS 578T breast) was > 100 µM. The TGI (MOLT-4 leukemia) was > 100 µM, the TGI (PC-3 prostate) was > 100 µM and the TGI (OVCAR-5 ovarian) was > 100 µM. For the same compound, the TGI (NCI-H522 lung) was 0.228 µM, the TGI (UACC-62 melanoma) was > 100 µM and the TGI (SR leukemia) was > 100 µM. The TGI (MDA-N) was > 100 µM, the TGI (DU-145 prostate) was > 100 µM and the TGI (SF-539 CNS) was > 100 µM. For the same compound, the TGI (SN12C renal) was > 100 µM, the TGI (EKVX NSCLC) was > 100 µM and the TGI (NCI-H23 lung) was > 100 µM. The TGI (LOX IMVI melanoma) was > 100 µM, the TGI (SNB-19 CNS) was > 100 µM and the TGI (OVCAR-3 ovarian) was > 100 µM. For the same compound, the TGI (RPMI-8226 leukemia) was > 100 µM, the TGI (SK-MEL-5 melanoma) was > 100 µM and the TGI (T-47D breast) was > 100 µM. For the same compound, the TGI (KM12 colon) was > 100 µM, the TGI (K-562 leukemia) was > 100 µM and the TGI (SW-620 colon) was > 100 µM. The TGI (CAKI-1 renal) was > 100 µM, the TGI (NCI-H226 lung) was > 100 µM and the TGI (786-0 renal) was > 100 µM. For the same compound, the TGI (A498 renal) was > 100 µM, the TGI (IGROV1 ovarian) was > 100 µM and the TGI (NCI/ADR-RES ovarian) was > 100 µM. For the same compound, the TGI (OVCAR-4 ovarian) was > 100 µM, the TGI (TK-10 renal) was > 100 µM and the TGI (SK-MEL-28 melanoma) was > 100 µM. The TGI (HCT-15 colon) was > 100 µM, the TGI (HOP-62 NSCLC) was > 100 µM and the TGI (SNB-75 CNS) was > 100 µM. For the same compound, the TGI (ACHN renal) was > 100 µM, the TGI (HL-60(TB) leukemia) was > 100 µM and the TGI (MDA-MB-231 breast) was > 100 µM. For the same compound, the TGI (OVCAR-8 ovarian) was > 100 µM, the TGI (A549 NSCLC) was > 100 µM and the TGI (MALME-3M melanoma) was > 100 µM. For the same compound, the TGI (HOP-92 NSCLC) was > 100 µM, the TGI (UACC-257 melanoma) was > 100 µM and the TGI (SF-295 CNS) was 64.4 µM. The TGI (MCF7 breast) was > 100 µM.
